Tested on: 192522-019-R-J2-PDC complex tumor spheroid viability
Test: Anticancer human tumor 192522-019-R-J2-PDC patient-derived colon adenocarcinoma cell line growth inhibition [POLQ]
Details: for IC50: curve of first compound; for viability, T/C: stronger effect = lower value
Method in brief: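 Growth inhibition in 3D: complex spheroids (tumor PDC, HUVEC, MSC) treated with POLQ inhibitor combinations; where Cmax unknown, highest tested concentration 10 microM, except SN-38 at 1 microM.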
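Also: spheroids exposed to drugs for seven days before reading.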
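For viability, T/C in this document: 100% = DMSO vehicle control viability in luminescence.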

Compound: CC(=O)O[C@H]1C(=O)[C@@]2(C)[C@H]([C@H](OC(=O)c3ccccc3)[C@]3(O)C[C@H](OC(=O)[C@H](O)[C@@H](NC(=O)c4ccccc4)c4ccccc4)C(C)=C1C3(C)C)[C@]1(OC(C)=O)CO[C@@H]1C[C@@H]2O + Cc1cccc(N(C)C(=O)C2C(O)CCN2c2nc(C)cc(C(F)(F)F)c2C#N)c1
- IC50 (second compound 0.0316 µM): > 3 µM
- IC50 (second compound 0.1 µM): > 3 µM
- IC50 (second compound 0.316 µM): > 3 µM
- IC50 (second compound 1 µM): > 3 µM
- IC50 (second compound 3.16 µM): > 3 µM
- IC50 (second compound 10 µM): > 3 µM
- viability, T/C (second compound 0.0316 µM, first compound 0.00949 µM): 90%
- viability, T/C (second compound 0.0316 µM, first compound 0.03 µM): 69.4%
- viability, T/C (second compound 0.0316 µM, first compound 0.0949 µM): 52.2%
- viability, T/C (second compound 0.0316 µM, first compound 0.3 µM): 59%
- viability, T/C (second compound 0.0316 µM, first compound 0.949 µM): 56.8%
- viability, T/C (second compound 0.0316 µM, first compound 3 µM): 54.7%
- viability, T/C (second compound 0.1 µM, first compound 0.00949 µM): 98.5%
- viability, T/C (second compound 0.1 µM, first compound 0.03 µM): 74.3%
- viability, T/C (second compound 0.1 µM, first compound 0.0949 µM): 53.1%
- viability, T/C (second compound 0.1 µM, first compound 0.3 µM): 64.4%
- viability, T/C (second compound 0.1 µM, first compound 0.949 µM): 60.4%
- viability, T/C (second compound 0.1 µM, first compound 3 µM): 57.9%
- viability, T/C (second compound 0.316 µM, first compound 0.00949 µM): 92.1%
- viability, T/C (second compound 0.316 µM, first compound 0.03 µM): 79.5%
- viability, T/C (second compound 0.316 µM, first compound 0.0949 µM): 61.8%
- viability, T/C (second compound 0.316 µM, first compound 0.3 µM): 58.4%
- viability, T/C (second compound 0.316 µM, first compound 0.949 µM): 64.3%
- viability, T/C (second compound 0.316 µM, first compound 3 µM): 62.4%
- viability, T/C (second compound 1 µM, first compound 0.00949 µM): 102%
- viability, T/C (second compound 1 µM, first compound 0.03 µM): 84%
- viability, T/C (second compound 1 µM, first compound 0.0949 µM): 61.1%
- viability, T/C (second compound 1 µM, first compound 0.3 µM): 60.3%
- viability, T/C (second compound 1 µM, first compound 0.949 µM): 54.3%
- viability, T/C (second compound 1 µM, first compound 3 µM): 55.5%
- viability, T/C (second compound 3.16 µM, first compound 0.00949 µM): 105%
- viability, T/C (second compound 3.16 µM, first compound 0.03 µM): 79.8%
- viability, T/C (second compound 3.16 µM, first compound 0.0949 µM): 61.8%
- viability, T/C (second compound 3.16 µM, first compound 0.3 µM): 59.5%
- viability, T/C (second compound 3.16 µM, first compound 0.949 µM): 65.8%
- viability, T/C (second compound 3.16 µM, first compound 3 µM): 57.4%
- viability, T/C (second compound 10 µM, first compound 0.00949 µM): 94%
- viability, T/C (second compound 10 µM, first compound 0.03 µM): 67.8%
- viability, T/C (second compound 10 µM, first compound 0.0949 µM): 58.3%
- viability, T/C (second compound 10 µM, first compound 0.3 µM): 58.9%
- viability, T/C (second compound 10 µM, first compound 0.949 µM): 56.8%
- viability, T/C (second compound 10 µM, first compound 3 µM): 63.3%

Compound: CC[C@@]1(O)C(=O)OCc2c1cc1n(c2=O)Cc2cc3c(CN(C)C)c(O)ccc3nc2-1 + Cc1cccc(N(C)C(=O)C2C(O)CCN2c2nc(C)cc(C(F)(F)F)c2C#N)c1
- IC50 (second compound 0.0316 µM): > 0.1 µM
- IC50 (second compound 0.1 µM): > 0.1 µM
- IC50 (second compound 0.316 µM): > 0.1 µM
- IC50 (second compound 1 µM): > 0.1 µM
- IC50 (second compound 3.16 µM): > 0.1 µM
- IC50 (second compound 10 µM): > 0.1 µM
- viability, T/C (second compound 0.0316 µM, first compound 0.000316 µM): 116%
- viability, T/C (second compound 0.0316 µM, first compound 0.001 µM): 93.7%
- viability, T/C (second compound 0.0316 µM, first compound 0.00316 µM): 103%
- viability, T/C (second compound 0.0316 µM, first compound 0.01 µM): 99.2%
- viability, T/C (second compound 0.0316 µM, first compound 0.0316 µM): 98.7%
- viability, T/C (second compound 0.0316 µM, first compound 0.1 µM): 62.4%
- viability, T/C (second compound 0.1 µM, first compound 0.000316 µM): 106%
- viability, T/C (second compound 0.1 µM, first compound 0.001 µM): 98.4%
- viability, T/C (second compound 0.1 µM, first compound 0.00316 µM): 102%
- viability, T/C (second compound 0.1 µM, first compound 0.01 µM): 94.5%
- viability, T/C (second compound 0.1 µM, first compound 0.0316 µM): 88%
- viability, T/C (second compound 0.1 µM, first compound 0.1 µM): 64.5%
- viability, T/C (second compound 0.316 µM, first compound 0.000316 µM): 102%
- viability, T/C (second compound 0.316 µM, first compound 0.001 µM): 106%
- viability, T/C (second compound 0.316 µM, first compound 0.00316 µM): 104%
- viability, T/C (second compound 0.316 µM, first compound 0.01 µM): 102%
- viability, T/C (second compound 0.316 µM, first compound 0.0316 µM): 93.8%
- viability, T/C (second compound 0.316 µM, first compound 0.1 µM): 70%
- viability, T/C (second compound 1 µM, first compound 0.000316 µM): 106%
- viability, T/C (second compound 1 µM, first compound 0.001 µM): 106%
- viability, T/C (second compound 1 µM, first compound 0.00316 µM): 111%
- viability, T/C (second compound 1 µM, first compound 0.01 µM): 102%
- viability, T/C (second compound 1 µM, first compound 0.0316 µM): 96.2%
- viability, T/C (second compound 1 µM, first compound 0.1 µM): 75.2%
- viability, T/C (second compound 3.16 µM, first compound 0.000316 µM): 99.2%
- viability, T/C (second compound 3.16 µM, first compound 0.001 µM): 114%
- viability, T/C (second compound 3.16 µM, first compound 0.00316 µM): 115%
- viability, T/C (second compound 3.16 µM, first compound 0.01 µM): 98.4%
- viability, T/C (second compound 3.16 µM, first compound 0.0316 µM): 102%
- viability, T/C (second compound 3.16 µM, first compound 0.1 µM): 79.5%
- viability, T/C (second compound 10 µM, first compound 0.000316 µM): 110%
- viability, T/C (second compound 10 µM, first compound 0.001 µM): 107%
- viability, T/C (second compound 10 µM, first compound 0.00316 µM): 120%
- viability, T/C (second compound 10 µM, first compound 0.01 µM): 102%
- viability, T/C (second compound 10 µM, first compound 0.0316 µM): 95.3%
- viability, T/C (second compound 10 µM, first compound 0.1 µM): 75%

— PubChem BioAssay AID1963850 (Molecular Pharmacology Branch, DTP, NCI, 2024)
